Test results taken from patent US20230312530A1, “SALT OF RHO-ASSOCIATED PROTEIN KINASE INHIBITOR, SOLID FORM OF THE SALT, PREPARATION METHOD FOR SAME, AND USES THEREOF” (BEIJING TIDE PHARMACEUTICAL CO., LTD., priority 2020, published 2023).

Experiment: Pharmacokinetic test, single oral administration to beagle dogs
Format: in vivo
Settings: dog, blood, 20 mg/kg, once, 20 mpk, vehicle 0.5% CMC-Na
Experimental: The crystalline form I of compound A monohydrochloride monohydrate and compound A (vehicles for both samples were 0.5% CMC-Na) were respectively orally administered once to two groups of beagle dogs at a dose of 20 mpk, and blood samples were collected before the administration (0 h) and at 0.25, 0.5, 1, 2, 4, 6, 8 and 24 hours after the administration. The samples were processed and subjected to a chromatographic analysis.

Cn1c(C(=O)N2CC(F)(F)C2)cc2ccc(-c3nccc(Nc4ccc(-c5cn[nH]c5)cc4)n3)cc21 [Compound A, (6-(4-((4-(1H-pyrazol-4-yl)phenyl)amino)pyrimidin-2-yl)-1-methyl-1H-indol-2-yl)(3,3-difluoroazetidin-1-yl)methanone]
Cmax: 147 ng/mL | AUC(0-t) (sampling to 24 hours): 522 ng·h/mL
